SMILES strings stand for the structures.

Drawing on ChEMBL document CHEMBL5506043, “A β-Carboline Derivate PAD4 Inhibitor Reshapes Neutrophil Phenotype and Improves the Tumor Immune Microenvironment against Triple-Negative Breast Cancer” (J Med Chem, 2024), this text covers IC50 for 32 compounds.

Series [1] addresses Protein-arginine deiminase type-2 (Homo sapiens, UniProt Q9Y2J8). Briefly: Inhibition of PAD2 (unknown origin) using Nalpha-benzoyl-L-arginine ethyl ester as substrate preincubated for 60 mins followed by substrate addition and measured after 90 mins by colorimetric analysis.
The target of series [2] is Protein-arginine deiminase type-4 (Homo sapiens, UniProt Q9UM07). Briefly: Inhibition of PAD4 (unknown origin) using Nalpha-benzoyl-L-arginine ethyl ester as substrate preincubated for 60 mins followed by substrate addition and measured after 90 mins by colorimetric analysis.
Chain of Protein-arginine deiminase type-4 (Q9UM07 whole entry): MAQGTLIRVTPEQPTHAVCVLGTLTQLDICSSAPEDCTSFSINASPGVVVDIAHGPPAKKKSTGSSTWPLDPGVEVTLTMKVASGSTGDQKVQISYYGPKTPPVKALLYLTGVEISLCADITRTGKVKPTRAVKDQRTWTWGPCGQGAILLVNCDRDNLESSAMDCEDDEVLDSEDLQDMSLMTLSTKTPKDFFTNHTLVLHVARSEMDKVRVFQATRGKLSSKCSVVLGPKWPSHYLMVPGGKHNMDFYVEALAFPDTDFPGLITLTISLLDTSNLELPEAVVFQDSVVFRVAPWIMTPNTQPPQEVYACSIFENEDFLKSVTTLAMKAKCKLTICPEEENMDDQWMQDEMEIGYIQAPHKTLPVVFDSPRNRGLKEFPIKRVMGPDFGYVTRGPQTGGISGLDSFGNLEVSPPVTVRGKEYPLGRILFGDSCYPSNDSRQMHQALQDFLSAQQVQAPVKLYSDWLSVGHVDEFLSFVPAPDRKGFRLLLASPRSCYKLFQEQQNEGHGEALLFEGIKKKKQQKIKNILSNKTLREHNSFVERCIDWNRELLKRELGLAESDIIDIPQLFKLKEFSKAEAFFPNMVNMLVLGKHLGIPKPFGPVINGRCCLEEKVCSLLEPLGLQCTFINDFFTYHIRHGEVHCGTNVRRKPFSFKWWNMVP
Another series relates to 4T1. Description: Antiproliferative activity against mouse 4T1 cells assessed as inhibition of cell growth incubated for 48 hrs by MTT assay. Format: functional, cell-based. The settings on record: 4T1, 48 h. Background: Tetrazolium assays rely on reduction of a dye to a coloured formazan, in cell work by metabolically active cells.
For another series, the system named is MDA-MB-468. Description: Antiproliferative activity against human MDA-MB-468 cells assessed as inhibition of cell growth incubated for 48 hrs by MTT assay. Type of series: functional, cell-based. The settings on record: MDA-MB-468, 48 h.
The nature of series [3]: Cytotoxicity against human MCF-10A cells assessed as inhibition of cell growth incubated for 48 hrs by MTT assay. Format: toxicity, cell-based.

Chain of Protein-arginine deiminase type-2 (Q9Y2J8 whole entry): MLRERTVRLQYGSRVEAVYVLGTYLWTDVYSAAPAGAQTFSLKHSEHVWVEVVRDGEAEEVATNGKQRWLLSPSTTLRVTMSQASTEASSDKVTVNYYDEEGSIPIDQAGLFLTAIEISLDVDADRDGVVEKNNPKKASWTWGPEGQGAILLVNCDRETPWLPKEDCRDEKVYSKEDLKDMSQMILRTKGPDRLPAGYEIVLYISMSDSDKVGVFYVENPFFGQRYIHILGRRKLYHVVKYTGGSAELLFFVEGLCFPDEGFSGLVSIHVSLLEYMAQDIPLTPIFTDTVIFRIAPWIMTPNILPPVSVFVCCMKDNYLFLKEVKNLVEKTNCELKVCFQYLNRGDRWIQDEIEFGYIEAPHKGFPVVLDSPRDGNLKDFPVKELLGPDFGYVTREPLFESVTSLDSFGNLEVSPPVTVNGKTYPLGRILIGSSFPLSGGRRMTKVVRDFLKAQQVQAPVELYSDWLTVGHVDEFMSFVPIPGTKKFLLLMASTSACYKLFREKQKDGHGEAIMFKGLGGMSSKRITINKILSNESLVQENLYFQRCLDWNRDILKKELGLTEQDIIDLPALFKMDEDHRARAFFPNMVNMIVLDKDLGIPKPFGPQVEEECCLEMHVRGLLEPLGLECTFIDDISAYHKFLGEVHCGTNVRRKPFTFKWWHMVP

What is called IC50 is the concentration that inhibits the measured activity by half. For the compound `CC(C)c1ccc(-c2nc(C(=O)N[C@@H](CCCNC(=N)CCl)C(=O)NCc3ccccc3)cc3c2[nH]c2ccccc23)cc1`, the IC50 in series [1] was above 10000 nM; in series [2], 6890 nM; in the series with 4T1, 4.28 µM; in the series with MDA-MB-468, 2.95 µM. Further, the IC50 at 48 h in series [3] is 3.52 µM.
The matching figures for `CCCCCCCCCc1nc(C(=O)N[C@@H](CCCNC(=N)CCl)C(=O)NCc2ccccc2)cc2c1[nH]c1ccccc12`: 16800 nM, 14000 nM, 12.2 µM, 7.2 µM and 14.3 µM.
As for `N=C(CCl)NCCC[C@H](NC(=O)c1cc2c([nH]c3ccccc32)c(-c2ccncc2)n1)C(=O)NCc1ccccc1`, the IC50 in series [1] was found to be 4650 nM; in series [2] it was 3430 nM; in the series on 4T1, 45.2 µM; in the series on MDA-MB-468 it was 85.3 µM. In series [3], the concentration for half-maximal inhibition (IC50) at 48 h was found to be 83.8 µM.
Turning to `N=C(CCl)NCCC[C@H](NC(=O)c1cc2c([nH]c3ccccc32)c(-c2ccc3ccccc3n2)n1)C(=O)NCc1ccccc1`, the half-maximal inhibitory concentration (IC50) in series [1] is above 10000 nM; in series [2], 13200 nM; in the series with 4T1, 0.88 µM; in the series with MDA-MB-468 it was 3.05 µM. Moreover, the IC50 at 48 h in series [3] amounted to 2.77 µM.
Regarding `N=C(CCl)NCCC[C@H](NC(=O)c1cc2c([nH]c3ccccc32)c(C2CC2)n1)C(=O)NCc1ccccc1`, the IC50 was found to be 1270 nM in series [1], 620 nM in series [2], 12.2 µM with 4T1 and 4.88 µM in the series with MDA-MB-468. The IC50 at 48 h in series [3] was 4.37 µM.
For `CC(C)c1nc(C(=O)N[C@@H](CCCNC(=N)CCl)C(=O)NCc2ccccc2)cc2c1[nH]c1ccccc12`, the IC50 in series [1] amounted to 1140 nM; in series [2], 1180 nM; in the series with 4T1, 11.5 µM; in the series on MDA-MB-468, 5.2 µM. Also, the half-maximal inhibitory concentration (IC50) at 48 h in series [3] turned out to be 4.07 µM.
Regarding `CC(C)Cc1nc(C(=O)N[C@@H](CCCNC(=N)CCl)C(=O)NCc2ccccc2)cc2c1[nH]c1ccccc12`, the IC50 in series [1] was 1030 nM; in series [2], 710 nM; in the series on 4T1, 10.1 µM; in the series on MDA-MB-468, 4.42 µM. The IC50 at 48 h in series [3] amounted to 5.16 µM.
`N=C(CCl)NCCC[C@H](NC(=O)c1c[nH]c2ccccc12)C(=O)NCc1ccccc1`: the IC50 in series [1] came to 350 nM; in series [2], 700 nM; in the series on 4T1 it was 99.9 µM; in the series with MDA-MB-468, 117 µM. Moreover, the IC50 at 48 h in series [3] came to 120 µM.
As for `Cc1nc(C(=O)N[C@@H](CCCNC(=N)CCl)C(=O)NCc2ccccc2)cc2c1[nH]c1ccccc12`, the 50% inhibitory concentration (IC50) in series [1] came to 830 nM; in series [2], 760 nM; in the series with 4T1 it was 18.9 µM; with MDA-MB-468, 6.73 µM. Also, in series [3], the IC50 at 48 h stood at 18.2 µM.
For the compound `N=C(CCl)NCCC[C@H](NC(=O)c1ccc2[nH]ccc2c1)C(=O)NCc1ccccc1`, the 50% inhibitory concentration (IC50) in series [1] worked out at 1430 nM; in series [2] it was 800 nM; in the series on 4T1, 41.4 µM; with MDA-MB-468, 61.3 µM. The IC50 at 48 h in series [3] was 63.6 µM.
The matching figures for `N=C(CCl)NCCC[C@H](NC(=O)c1cc2c([nH]c3ccccc32)c(-c2cccs2)n1)C(=O)NCc1ccccc1`: 3770 nM, 1320 nM, 7.64 µM, 3.99 µM and 8.03 µM.
With `N=C(CCl)NCCC[C@H](NC(=O)c1cc2c([nH]c3ccccc32)c(-c2cc3ccccc3cn2)n1)C(=O)NCc1ccccc1`, the IC50 is above 10000 nM in series [1], 24100 nM in series [2], 1.48 µM in the series on 4T1 and 4.26 µM in the series on MDA-MB-468. Further, the IC50 at 48 h in series [3] is 4.02 µM.
With `N=C(CCl)NCCC[C@H](NC(=O)c1cc2c([nH]c3ccccc32)c(-c2ccc3ccccc3c2)n1)C(=O)NCc1ccccc1`, the IC50 is above 10000 nM in series [1], 3240 nM in series [2], 5.8 µM with 4T1 and 4.23 µM in the series on MDA-MB-468. The concentration for half-maximal inhibition (IC50) at 48 h in series [3] came to 9.73 µM.
As for `N=C(CCl)NCCC[C@H](NC(=O)c1cc2c([nH]c3ccccc32)c(-c2nccc3ccccc23)n1)C(=O)NCc1ccccc1`, the 50% inhibitory concentration (IC50) was above 10000 nM in series [1], 14000 nM in series [2], 1.3 µM in the series on 4T1 and 3.66 µM in the series with MDA-MB-468. The 50% inhibitory concentration (IC50) at 48 h in series [3] was 3.03 µM.
For the compound `Cc1ccc(-c2nc(C(=O)N[C@@H](CCCNC(=N)CCl)C(=O)NCc3ccccc3)cc3c2[nH]c2ccccc23)cc1`, the IC50 in series [1] was above 10000 nM; in series [2], 10000 nM; in the series on 4T1, 8.02 µM; in the series with MDA-MB-468, 6.94 µM. For the same compound, the concentration for half-maximal inhibition (IC50) at 48 h in series [3] came out at 17.5 µM.
`N=C(CCl)NCCC[C@H](NC(=O)c1cc2c([nH]c3ccccc32)c(-c2ccc(F)cc2)n1)C(=O)NCc1ccccc1`: the IC50 in series [1] came to 2950 nM; in series [2], 1020 nM; in the series on 4T1, 11 µM; in the series on MDA-MB-468, 3.97 µM. Further, in series [3], the concentration for half-maximal inhibition (IC50) at 48 h amounted to 7.07 µM.
Turning to `N=C(CCl)NCCC[C@H](NC(=O)c1ccc2nc[nH]c2c1)C(=O)NCc1ccccc1`, the IC50 in series [1] is 2080 nM; in series [2] it was 1150 nM; with 4T1 it was above 100 µM; with MDA-MB-468, above 100 µM. Further, the IC50 at 48 h in series [3] is above 100 µM.
With `N=C(CCl)NCCC[C@H](NC(=O)c1cc2c([nH]c3ccccc32)c(-c2ccc(Cl)cc2)n1)C(=O)NCc1ccccc1`, the IC50 stood at 4050 nM in series [1], 1130 nM in series [2], 9.39 µM in the series on 4T1 and 4.05 µM in the series on MDA-MB-468. Moreover, in series [3], the IC50 at 48 h was 6.35 µM.
In the case of `N=C(CCl)NCCC[C@H](NC(=O)c1cc2c([nH]c3ccccc32)c(C2CCCCC2)n1)C(=O)NCc1ccccc1`, the half-maximal inhibitory concentration (IC50) came out at 2320 nM in series [1], 1110 nM in series [2], 5.48 µM with 4T1 and 2.89 µM with MDA-MB-468. The IC50 at 48 h in series [3] worked out at 2.76 µM.
`COC(Cc1nc(C(=O)N[C@@H](CCCNC(=N)CCl)C(=O)NCc2ccccc2)cc2c1[nH]c1ccccc12)OC`: the IC50 in series [1] is 1000 nM; in series [2] it was 960 nM; with 4T1, 19.8 µM; in the series on MDA-MB-468 it was 7.99 µM. In addition, the IC50 at 48 h in series [3] came out at 11 µM.
For `CCC(CC)c1nc(C(=O)N[C@@H](CCCNC(=N)CCl)C(=O)NCc2ccccc2)cc2c1[nH]c1ccccc12` the same measures were 1360 nM, 1100 nM, 5.66 µM, 3.72 µM and 3.82 µM.
Take `COc1ccc(-c2nc(C(=O)N[C@@H](CCCNC(=N)CCl)C(=O)NCc3ccccc3)cc3c2[nH]c2ccccc23)cc1`: the half-maximal inhibitory concentration (IC50) was determined as 3040 nM in series [1], 1700 nM in series [2], 7.48 µM with 4T1 and 4.2 µM in the series with MDA-MB-468. Moreover, the IC50 at 48 h in series [3] worked out at 6.27 µM.
For `N=C(CCl)NCCC[C@H](NC(=O)c1nc2ccccc2[nH]1)C(=O)NCc1ccccc1` the same measures were 5400 nM, 2920 nM, 72.1 µM, 29.2 µM and 29.7 µM.
Consider `CC(C)(C)c1nc(C(=O)N[C@@H](CCCNC(=N)CCl)C(=O)NCc2ccccc2)cc2c1[nH]c1ccccc12`, for which the half-maximal inhibitory concentration (IC50) in series [1] turned out to be 4320 nM; in series [2], 1200 nM; in the series with 4T1, 7.51 µM; with MDA-MB-468, 4.31 µM. Moreover, the IC50 at 48 h in series [3] came to 3.08 µM.
Take `N=C(CCl)NCCC[C@H](NC(=O)c1ccc2c(c1)NCCN2)C(=O)NCc1ccccc1`: the IC50 was 1930 nM in series [1], 2300 nM in series [2], above 100 µM in the series on 4T1 and above 100 µM in the series with MDA-MB-468. The IC50 at 48 h in series [3] is above 100 µM.
Take `N=C(CCl)NCCC[C@H](NC(=O)c1cc2c([nH]c3ccccc32)c(-c2cccc([N+](=O)[O-])c2)n1)C(=O)NCc1ccccc1`: the IC50 in series [1] is above 10000 nM; in series [2], 2030 nM; in the series with 4T1, above 100 µM; in the series with MDA-MB-468, 13.8 µM. In addition, the concentration for half-maximal inhibition (IC50) at 48 h in series [3] worked out at 7.22 µM.
The matching figures for `N=C(CCl)NCCC[C@H](NC(=O)c1cc2c([nH]c3ccccc32)c(-c2ncc[nH]2)n1)C(=O)NCc1ccccc1`: 10800 nM, 3120 nM, 6.67 µM, 6.94 µM and 12.4 µM.
For `N=C(CCl)NCCC[C@H](NC(=O)c1c[nH]c2ccc(F)cc12)C(=O)NCc1ccccc1`, the IC50 in series [1] was determined as 2100 nM; in series [2], 1020 nM; with 4T1 it was 85.5 µM; in the series on MDA-MB-468 it was 92 µM. In addition, the half-maximal inhibitory concentration (IC50) at 48 h in series [3] amounted to 72.7 µM.
Consider `COc1cc(OC)c(-c2nc(C(=O)N[C@@H](CCCNC(=N)CCl)C(=O)NCc3ccccc3)cc3c2[nH]c2ccccc23)c(OC)c1`, for which the IC50 was determined as 1630 nM in series [1], 2150 nM in series [2], 16 µM in the series with 4T1 and 6.18 µM in the series with MDA-MB-468. Also, the IC50 at 48 h in series [3] was 16.9 µM.
The matching figures for `N=C(CCl)NCCC[C@H](NC(=O)c1cc2c(cn1)[nH]c1ccccc12)C(=O)NCc1ccccc1`: 2730 nM, 1760 nM, 23.5 µM, 14.3 µM and 29.4 µM.
Turning to `N=C(CCl)NCCC[C@H](NC(=O)c1cc2c([nH]c3ccccc32)c(-c2nc3ccccc3[nH]2)n1)C(=O)NCc1ccccc1`, the concentration for half-maximal inhibition (IC50) in series [1] was above 10000 nM; in series [2], 9300 nM; in the series with 4T1, 1.44 µM; in the series with MDA-MB-468, 3.18 µM. Also, the 50% inhibitory concentration (IC50) at 48 h in series [3] worked out at 3 µM.
Turning to `Cn1c(-c2nc(C(=O)N[C@@H](CCCNC(=N)CCl)C(=O)NCc3ccccc3)cc3c2[nH]c2ccccc23)nc2ccccc21`, the IC50 is above 10000 nM in series [1], above 10000 nM in series [2], 3.77 µM with 4T1 and 4.82 µM with MDA-MB-468. In addition, the IC50 at 48 h in series [3] was 5.3 µM.
